Patent US6667173B2, “Nucleic acids encoding platelet derived growth factor-alpha receptors” (The Schepens Eye Research Institute, priority 2000, dated 2003)
Entries after “also recorded” stand apart in the source; their conditions may differ.

Assays:
SHP-2 = experiment: Co-immunoprecipitation of SHP-2 with αPDGFR mutants in F cells; assay type: cell-based, mouse; details: 50 ng/ml PDGF-BB, 5 minutes
Description: (§1) The ability of the αPDGFR mutants to undergo ligand dependent tyrosine phosphorylation and to associate with signaling enzymes was then tested. F cells expressing various αPDGFR mutants were grown to subconfluence and serum starved overnight. Cells were either left resting (−) or stimulated with 50 ng/ml PDGF-BB (+) for 5 minutes, and lysed. The αPDGFR was immunoprecipitated with αPDGFR antibody, as described above, and the resulting immunoprecipitates were resolved by 7.5% SDS-PAGE and transferred onto Immobilon. The segment of the blot containing the αPDGFR was first blotted with anti-phosphotyrosine antibodies, then stripped and reprobed with an anti-αPDGFR antibody. Portions of the membrane that contained the proteins of the appropriate molecular mass were immunoblotted for PLCγ, the regulatory subunit of PI3K (p85), or SHP-2. Crude rabbit anti-p85 antibody is from Dr. A. Toker (Beth Israel Hospital/Harvard Medical School, Boston, Mass.). The monoclonal antibodies against PLCγ and SHP-2 were purchased from Upstate Biotechnology Inc.

PLCγ = experiment: Co-immunoprecipitation of PLCγ with αPDGFR mutants in F cells; assay type: cell-based, mouse; details: 50 ng/ml PDGF-BB, 5 minutes
Description: as §1

PI3K (p85) = experiment: Co-immunoprecipitation of the regulatory subunit of PI3K (p85) with αPDGFR mutants in F cells; assay type: cell-based, mouse; details: 50 ng/ml PDGF-BB, 5 minutes
Description: as §1

Src family kinases = details: cited from earlier work
F cells = experiment: Collagen gel contraction assay of F cells expressing αPDGFR mutants; assay type: cell-based, mouse; details: PDGF-BB (50 ng/ml), 48 hours
Description: The contraction assay was based on a previously described reference, Skuta, G. et al. (1999) J. Biol. Chem. 274:30163, with the following modifications. Fα cells were suspended in 1.5 mg/ml of neutralized collagen I (Cohesion vitrogen 100, Palo Alto, Calif.) at a density of 10^6 cells/ml, and were transferred into the 24-well plate (Falcon, Franklyn Lakes, N.J.) that had been preincubated with phosphate-buffer saline (PBS) with 5 mg/ml of bovine serum albumin (BSA) overnight. The gel was solidified by incubating at 37° C. for 90 minutes, and then the well was flooded with DMEM+5 mg/ml of BSA supplemented with an amount of vitreous such that the final concentration of vitreous in the culture medium was 1, 5 or 20%. The gels were incubated at 37° C. with 5% CO2. The initial gel diameter was 15 mm. The media was replaced every 24 hours and the gel diameter was measured after 48 hours. The extent of contraction was calculated by subtracting the diameter of the well at 48 hours from the initial diameter (15 mm). Each experimental condition was assayed in triplicate, and at least three independent experiments were performed. Unpaired t-test was performed to detect statistic difference in contraction assay.
To determine the signaling pathways that drive contraction, cells expressing the αPDGFR mutants were subjected to the collagen gel contraction assay described above. Accordingly, F cells expressing the indicated αPDGFRs were subjected to the collagen gel assay in the presence of buffer, PDGF-BB (50 ng/ml), TGFβ1 (1 ng/ml), or FBS (10%). The data presented are the mean±standard deviation measured at the 48 hours time point. Each experimental condition was assayed in triplicate, and at least 3 independent experiments were performed.

rabbit eyes = details: previously found (Rosenkranz et al. 2000); cited from earlier work

Substance: F72/74: αPDGFR mutant, Tyr to Phe substitution at 572 and 574
- recruitment of SHP-2 (Properties) (SHP-2): bind all of these signaling enzymes
- recruitment or activation of PLCγ (Properties) (PLCγ): bind all of these signaling enzymes
- recruitment of PI3K / p85 (Properties) (PI3K (p85)): bind all of these signaling enzymes
- recruitment or activation of Src family kinases (Properties) (Src family kinases): selectively fails to associate with Src family kinases; also recorded: Fails to recruit or activate
- PDGF-dependent contraction (F cells): no effect on contraction
- potential to induce PVR (rabbit eyes): induced PVR with slightly accelerated kinetics
